For 18 compounds, IC50 results are on record in ChEMBL document CHEMBL5360522, “Design, Synthesis, and Biological Evaluation of New 1H-Imidazole-2-Carboxylic Acid Derivatives as Metallo-β-Lactamase Inhibitors” (Bioorg Med Chem, 2022).

The nature of assay [1]: Inhibition of N-terminal His-6 tagged VIM-2 (27 to 266 residues) (unknown origin) expressed in Escherichia coli Transetta (DE3) using FC5 as fluorescence substrate preincubated for 10 mins followed by substrate addition by microplate reader analysis. More on the design: species or system Bacteria.
The nature of assay [2]: Inhibition of Metallo-beta-lactamase VIM-1 (unknown origin) using FC5 as fluorescence substrate preincubated for 10 mins followed by substrate addition by microplate reader analysis.
The nature of assay [3]: Inhibition of Metallo-beta-lactamase VIM-5 (unknown origin) using FC5 as fluorescence substrate preincubated for 10 mins followed by substrate addition by microplate reader analysis.
For assay [4], the target named is Metallo-beta-lactamase type 2 (Bacteria, UniProt C7C422). The assay is described as follows: Inhibition of NDM-1 (1 to 270 residues) (unknown origin) expressed in Escherichia coli Transetta (DE3) using FC5 as fluorescence substrate preincubated for 10 mins followed by substrate addition by microplate reader analysis.
Assay [5] is described as follows: Inhibition of Metallo-beta-lactamase IMP-1 (unknown origin) using FC5 as fluorescence substrate preincubated for 10 mins followed by substrate addition by microplate reader analysis.

The structures appear in SMILES notation. Where only a bound is given, the exact number is not on record here.

Metallo-beta-lactamase type 2, sequence (C7C422 whole entry, the tested form may be a part): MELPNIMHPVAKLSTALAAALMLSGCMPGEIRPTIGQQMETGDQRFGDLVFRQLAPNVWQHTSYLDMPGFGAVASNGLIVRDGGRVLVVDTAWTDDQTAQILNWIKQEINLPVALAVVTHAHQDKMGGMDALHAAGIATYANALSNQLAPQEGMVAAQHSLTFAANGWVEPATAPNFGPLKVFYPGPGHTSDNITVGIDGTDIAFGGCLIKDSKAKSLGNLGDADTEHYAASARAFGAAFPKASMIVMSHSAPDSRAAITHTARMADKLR

As for `COc1ccc(CCn2ccnc2C(=O)O)cc1`, the half-inhibitory concentration (IC50) in assay [1] was 0.35 µM; in assay [2] it was 33.7 µM; in assay [3] it was 1.64 µM; in assay [4], greater than 100 µM; in assay [5], 4.48 µM.

With `O=C(O)c1ncsc1CCc1cccc(Br)c1`, the half-inhibitory concentration (IC50) is 0.024 µM in assay [1]; 1.64 µM in assay [2]; 1.45 µM in assay [3]; greater than 100 µM in assay [4]; greater than 100 µM in assay [5].

Take `O=C(O)c1ncsc1Cc1ccccc1`: the IC50 in assay [1] was found to be 2.06 µM; in assay [2], 6.31 µM; in assay [3], 4.37 µM; in assay [4] it was 43.7 µM; in assay [5] it was 7.8 µM.

Take `O=C(O)c1nccn1CCc1ccccn1`: the IC50 in assay [1] is 0.2 µM; in assay [2], 3.83 µM; in assay [3], 0.71 µM; in assay [4] it was 18.9 µM; in assay [5], greater than 100 µM.

For `CC(c1ccccc1)n1ccnc1C(=O)O` (stereo not given), the IC50 is 0.76 µM in assay [1]; 8.18 µM in assay [2]; 3.81 µM in assay [3]; greater than 200 µM in assay [4]; 4.12 µM in assay [5].

`O=C(O)c1nccn1CCc1ccc(-c2ccncc2)cc1`: the IC50 is 0.11 µM in assay [1]; 2.17 µM in assay [2]; 0.17 µM in assay [3]; 54.6 µM in assay [4]; 10.2 µM in assay [5].

Regarding `O=C(O)c1ncsc1CCc1ccc(F)cc1`, the IC50 is 0.047 µM in assay [1]; 4.09 µM in assay [2]; 0.41 µM in assay [3]; greater than 100 µM in assay [4]; 56.8 µM in assay [5].

Turning to `O=C(O)c1nccn1CCc1ccccc1`, the IC50 in assay [1] worked out at 0.11 µM; in assay [2] it was 2.32 µM; in assay [3], 1.59 µM; in assay [4], 301 µM; in assay [5], 483 µM.

For `O=C(O)c1ncsc1CCc1ccc(C(F)(F)F)cc1`, the concentration for half-maximal inhibition (IC50) in assay [1] was 0.21 µM; in assay [2], 14.5 µM; in assay [3], 1.55 µM; in assay [4], greater than 100 µM; in assay [5], 87.8 µM.

Consider `O=C(O)c1nccn1CCc1cccs1`, for which the 50% inhibitory concentration (IC50) in assay [1] was 0.12 µM; in assay [2] it was 1.07 µM; in assay [3], 0.64 µM; in assay [4], greater than 100 µM; in assay [5], 7.97 µM.

Take `O=C(O)c1nccn1CCOc1ccccc1`: the IC50 was 5.49 µM in assay [1]; 14.4 µM in assay [2]; 0.52 µM in assay [3]; greater than 100 µM in assay [4]; greater than 100 µM in assay [5].

As for `Nc1ccc(CCn2ccnc2C(=O)O)cc1`, the concentration for half-maximal inhibition (IC50) in assay [1] was 0.33 µM; in assay [2], 3.73 µM; in assay [3], 0.45 µM; in assay [4], greater than 100 µM; in assay [5], 4.9 µM.

As for `O=C(O)c1nccn1CCc1ccc(Cl)cc1`, the concentration for half-maximal inhibition (IC50) in assay [1] is 0.1 µM; in assay [2] it was 8.37 µM; in assay [3], 0.44 µM; in assay [4], greater than 100 µM; in assay [5], greater than 100 µM.

In the case of `O=C(O)c1ncoc1Cc1ccccc1`, the half-maximal inhibitory concentration (IC50) was 41.7 µM in assay [1]; greater than 100 µM in assay [2]; 11.8 µM in assay [3]; greater than 100 µM in assay [4]; greater than 100 µM in assay [5].

For `O=C(O)c1ncsc1CCc1ccccc1`, the IC50 was determined as 0.22 µM in assay [1]; 0.42 µM in assay [2]; 0.43 µM in assay [3]; 82.4 µM in assay [4]; 2.92 µM in assay [5].

`O=C(O)c1nccn1CCc1ccc2c(c1)CCO2`: the concentration for half-maximal inhibition (IC50) in assay [1] was 0.48 µM; in assay [2] it was 190 µM; in assay [3], 96.2 µM; in assay [4] it was greater than 100 µM; in assay [5], greater than 100 µM.

Take `O=C(O)c1nccn1CCNS(=O)(=O)c1ccccc1`: the IC50 in assay [1] was 5.95 µM; in assay [2], greater than 100 µM; in assay [3], 62.7 µM; in assay [4], greater than 100 µM; in assay [5] it was greater than 100 µM.

For the compound `O=C(O)c1ncsc1CCc1ccccc1F`, the half-maximal inhibitory concentration (IC50) in assay [1] is 0.035 µM; in assay [2], 1.82 µM; in assay [3], 1.17 µM; in assay [4] it was greater than 100 µM; in assay [5], 121 µM.
